The values that follow are results of earlier work, collected in US20060172006A1, “Sustained-release tramadol formulations with 24-hour clinical efficacy” (priority 2003, published 2006).

Counter-ions that a name gives are not always drawn.

The conditions of this data set: human, in vivo.

For `COc1cccc(C2(O)CCCCC2CN(C)C)c1` (stereo not shown) [tramadol HCl, Tramadol hydrochloride], the “Estimated incidence of seizures in patients” value is given as “less than 1%”.
